Reference: patent US9932637B2, “Genetic polymorphisms associated with cardiovascular disorders and drug response, methods of detection and uses thereof” (CELERA CORPORATION, priority 2003, dated 2018)
Where “and” joins values, the source holds several entries; their conditions need not be identical. Equal entries are not always repeated.

Tested on: Scottish men with hypercholesterolemia (WOSCOPS)
Test: WOSCOPS nested case-control: coronary events under pravastatin vs placebo by genotype (Tables 11, 13, 15)
Format: in vivo, human
Settings: for Pravastatin Patients (%) / Pravastatin Patients n/total: WM
From the text: Additionally, genetic markers identified as associated with acute coronary events or response to statin treatment for the prevention of coronary events in the CARE samples were also genotyped in a second sample set, the West of Scotland Coronary Prevention Study (WOSCOPS) sample set. […] Participants in the WOSCOPS study were 45-64 years of age and followed for an average of 4.9 years for coronary events. […] Controls were 1160 age and smoking status-matched unaffected patients. All individuals included in the study had signed a written informed consent form and the study protocol was approved by IRB s. DNA was extracted and genotyped as described above.
The data presented in Table 8 based on an association of genotypes with pravastatin efficacy of the CARE samples were further analyzed and presented in Table 13. The further analysis was performed to align the data obtained from the analysis of the CARE samples, which was a prospective study, to the analysis of the WOSCOP samples, which was a case/control study. Table 13 also presents an analysis of the association of genotypes with pravastatin efficacy in the WOSCOPs samples. Relative to the analysis performed on the data presented in Table 8, there are two significant differences to determine if the SNP influenced pravastatin efficacy. Data obtained from the CARE samples were separated by study design into two groups, those in the prospective study design group and those in the case/control study design group. The original care study contained 16 protocol defined cardiovascular disease defined endpoints and 150 other phenotypes. […] The control groups used to compare the data were also divided into two groups, the “all possible” control group and the “cleaner” control group. […] Because the participants in the WOSCOPs trial were all white males, only data obtained from white males in the CARE study were analysed. […] The data from the case/control cohorts were analysed using conditional logistic regression (as opposed to logistic regression used for the original anaylsis).
The anaylsis was refined as described for both Tables 13 and 14.

[1] = CAPN2 hCV781558, WOSCOPS (W) Case/Control, F&NF MI, listed as Pravastatin
[2] = CAPN2 hCV781558, WOSCOPS, Case/Control, F MI/SD/NF MI, listed as Pravastatin
[3] = CCL11 hCV7449808, WOSCOPS (W) Case/Control, F&NF MI
[4] = CCL11 hCV7449808, WOSCOPS, Case/Control, F MI/SD/NF MI
[5] = COL6A2 hCV2811372, WOSCOPS, Case/Control, F MI/SD/NF MI
[6] = COL6A2 hCV2811372, WOSCOPS, Case/Control, F MI/SD/NF MI, listed as Pravastatin
[7] = DDEF1 hCV7686234, WOSCOPS (W) Case/Control, F&NF MI
[8] = FGB hCV7429784, WOSCOPS, Case/Control, F MI/SD/NF MI
[9] = GAPD hCV8921288, WOSCOPS (W) Case/Control, F&NF MI
[10] = GAPD hCV8921288, WOSCOPS, Case/Control, F MI/SD/NF MI
[11] = HRC hCV11506744, 0 Rare Alleles, WOSCOPS Case/Control, F&NF MI, All Possible controls
[12] = HRC hCV11506744, 0 Rare Alleles, WOSCOPS Case/Control, F&NF MI, Cleaner controls
[13] = HRC hCV11506744, 1 Rare Allele, WOSCOPS Case/Control, F&NF MI, All Possible controls
[14] = HRC hCV11506744, 1 Rare Allele, WOSCOPS Case/Control, F&NF MI, Cleaner controls
[15] = HRC hCV11506744, WOSCOPS Case/Control, F&NF MI
[16] = HRC hCV11506744, WOSCOPS, Case/Control, F MI/SD/NF MI, listed as Pravastatin
[17] = IL1A hCV9546471, 0 Rare Alleles, WOSCOPS Case/Control, F&NF MI, All Possible controls
[18] = IL1A hCV9546471, 1 Rare Allele, WOSCOPS Case/Control, F&NF MI, All Possible controls
[19] = IL1A hCV9546471, WOSCOPS Case/Control, F&NF MI
[20] = IL1A hCV9546471, WOSCOPS, Case/Control, F MI/SD/NF MI
[21] = LRP3 hCV25594815, 0 Rare Alleles, WOSCOPS Case/Control, F&NF MI, All Possible controls
[22] = LRP3 hCV25594815, 0 Rare Alleles, WOSCOPS Case/Control, F&NF MI, Cleaner controls
[23] = LRP3 hCV25594815, 1 Rare Allele, WOSCOPS Case/Control, F&NF MI, All Possible controls
[24] = LRP3 hCV25594815, 1 Rare Allele, WOSCOPS Case/Control, F&NF MI, Cleaner controls
[25] = LRP3 hCV25594815, WOSCOPS Case/Control, F&NF MI
[26] = LRP3 hCV25594815, WOSCOPS, Case/Control, F MI/SD/NF MI
[27] = PON1 hCV2548962, 0 rare alleles, WOSCOPS Case/Control, Fatal & Nonfatal MI, Cleaner controls, White Males
[28] = PON1 hCV2548962, 1 rare allele, WOSCOPS Case/Control, Fatal & Nonfatal MI, Cleaner controls, White Males
[29] = PON1 hCV2548962, 2 rare alleles, WOSCOPS Case/Control, Fatal & Nonfatal MI, Cleaner controls, White Males
[30] = WOSCOPS, FCAR genotype GG, placebo group as reference, conditional logistic regression

CC[C@H](C)C(=O)O[C@H]1C[C@H](O)C=C2C=C[C@H](C)[C@H](CC[C@@H](O)C[C@@H](O)CC(=O)O)[C@H]21 [pravastatin]
Pravastatin vs placebo odds ratio, 1 rare allele (CAPN2 hCV781558, WOSCOPS (W) Case/Control, F&NF MI): 1.02 | 2 Rare Alleles n/total, Pravastatin Patients [1]: 10/41 and 10/39 | Pravastatin vs placebo odds ratio, 0 rare alleles [1]: 0.52 and 0.51 | Pravastatin vs placebo odds ratio, 1 rare allele [1]: 1.07 | Pravastatin vs placebo odds ratio, 2 rare alleles [1]: 0.46 and 0.38 | Pravastatin vs placebo odds ratio, 1 rare allele (CAPN2 hCV781558, WOSCOPS, Case/Control, F MI/SD/NF MI): 1.08 | Pravastatin vs placebo odds ratio, 0 rare alleles [2]: 0.46 and 0.45 | Pravastatin vs placebo odds ratio, 1 rare allele [2]: 1.03 | Pravastatin vs placebo odds ratio, 2 rare alleles [2]: 0.56 and 0.43 | 2 Rare Alleles n/total, Pravastatin Patients [3]: 10/24 and 10/22 | Pravastatin vs placebo odds ratio, 0 rare alleles [3]: 0.67 and 0.65 | Pravastatin vs placebo odds ratio, 1 rare allele [3]: 0.57 and 0.53 | Pravastatin vs placebo odds ratio, 2 rare alleles [3]: 6.96 and 7.20 | Pravastatin vs placebo odds ratio, 0 rare alleles [4]: 0.63 and 0.62 | Pravastatin vs placebo odds ratio, 1 rare allele [4]: 0.50 and 0.46 | Pravastatin vs placebo odds ratio, 2 rare alleles [4]: 8.57 and 9.95 | Pravastatin vs placebo odds ratio, 0 rare alleles [5]: 0.39 | Pravastatin vs placebo odds ratio, 2 rare alleles [5]: 1.04 | Pravastatin vs placebo odds ratio, 1 rare allele [6]: 0.62 and 0.59 | Pravastatin vs placebo odds ratio, 2 rare alleles [6]: 1.09 | 2 Rare Alleles (%), Pravastatin Patients [7]: (25.1%) | 2 Rare Alleles n/total, Pravastatin Patients [7]: 42/167 | Pravastatin vs placebo odds ratio, 0 rare alleles [7]: 0.45 | Pravastatin vs placebo odds ratio, 1 rare allele [7]: 0.68 | Pravastatin vs placebo odds ratio, 2 rare alleles [7]: 1.06 | 2 rare alleles n/total (%), pravastatin patients [8]: (50.0%) | Pravastatin vs placebo odds ratio, 0 rare alleles [8]: 0.63 | Pravastatin vs placebo odds ratio, 1 rare allele [8]: 0.52 | Pravastatin vs placebo odds ratio, 2 rare alleles [8]: 3.14 | 2 Rare Alleles n/total, Pravastatin Patients [9]: 10/26 and 10/23 | Pravastatin vs placebo odds ratio, 0 rare alleles [9]: 0.54 and 0.50 | Pravastatin vs placebo odds ratio, 1 rare allele [9]: 0.99 and 0.98 | Pravastatin vs placebo odds ratio, 2 rare alleles [9]: 1.51 and 1.90 | Pravastatin vs placebo odds ratio, 0 rare alleles [10]: 0.50 and 0.46 | Pravastatin vs placebo odds ratio, 1 rare allele [10]: 0.88 and 0.89 | Pravastatin vs placebo odds ratio, 2 rare alleles [10]: 1.56 and 1.92 | Pravastatin Patients (%) [11]: (23.3%) | Pravastatin Patients n/total [11]: 59/253 | Pravastatin Patients (%) [12]: (25.2%) | Pravastatin Patients n/total [12]: 59/234 | Pravastatin Patients (%) [13]: (18.0%) | Pravastatin Patients n/total [13]: 65/361 | Pravastatin Patients (%) [14]: (19.2%) | Pravastatin Patients n/total [14]: 65/338 | 2 Rare Alleles (%), Pravastatin Patients [15]: (27.6%) | 2 Rare Alleles n/total, Pravastatin Patients [15]: 35/127 and 35/118 | Pravastatin vs placebo odds ratio, 0 rare alleles [15]: 0.84 and 0.80 | Pravastatin vs placebo odds ratio, 1 rare allele [15]: 0.49 and 0.46 | Pravastatin vs placebo odds ratio, 2 rare alleles [15]: 1.08 | Pravastatin vs placebo odds ratio, 2 rare alleles (HRC hCV11506744, WOSCOPS, Case/Control, F MI/SD/NF MI): 1.04 | Pravastatin vs placebo odds ratio, 0 rare alleles [16]: 0.85 and 0.80 | Pravastatin vs placebo odds ratio, 1 rare allele [16]: 0.41 and 0.39 | Pravastatin vs placebo odds ratio, 2 rare alleles [16]: 1.05 | Pravastatin Patients (%) [17]: (20.8%) | Pravastatin Patients n/total [17]: 77/370 | Pravastatin Patients (%) [18]: (24.2%) | Pravastatin Patients n/total [18]: 74/306 | 2 Rare Alleles (%), Pravastatin Patients [19]: (18.3%) | 2 Rare Alleles n/total, Pravastatin Patients [19]: 11/60 | Pravastatin vs placebo odds ratio, 0 rare alleles [19]: 0.52 | Pravastatin vs placebo odds ratio, 1 rare allele [19]: 0.95 | Pravastatin vs placebo odds ratio, 2 rare alleles [19]: 0.95 | Pravastatin vs placebo odds ratio, 0 rare alleles [20]: 0.46 and 0.45 | Pravastatin vs placebo odds ratio, 1 rare allele [20]: 0.91 and 0.85 | Pravastatin vs placebo odds ratio, 2 rare alleles [20]: 0.94 and 0.98 | Pravastatin Patients (%) [21]: (24.1%) | Pravastatin Patients n/total [21]: 133/552 | Pravastatin Patients (%) [22]: (26.1%) | Pravastatin Patients n/total [22]: 133/509 | Pravastatin Patients (%) [23]: (14.5%) | Pravastatin Patients n/total [23]: 25/172 | Pravastatin Patients (%) [24]: (15.2%) | Pravastatin Patients n/total [24]: 25/164 | 2 Rare Alleles (%), Pravastatin Patients [25]: (27.3%) | 2 Rare Alleles n/total, Pravastatin Patients [25]: 3/11 | Pravastatin vs placebo odds ratio, 0 rare alleles [25]: 0.82 and 0.80 | Pravastatin vs placebo odds ratio, 1 rare allele [25]: 0.33 and 0.31 | Pravastatin vs placebo odds ratio, 2 rare alleles [25]: 1.46 and 1.21 | 2 rare alleles n/total (%), pravastatin patients [26]: (27.3%) | Pravastatin vs placebo odds ratio, 0 rare alleles [26]: 0.76 and 0.75 | Pravastatin vs placebo odds ratio, 1 rare allele [26]: 0.29 and 0.26 | Pravastatin vs placebo odds ratio, 2 rare alleles [26]: 2.40 and 1.80 | Pravastatin vs. Placebo Odds Ratio (95% CI), Patients with 0 Rare Alleles [27]: 0.84 (0.60 to 1.16) | n/total (%) cases, Pravastatin Patients, 0 Rare Alleles [27]: 88/344 (25.6%) | Pravastatin vs. Placebo Odds Ratio (95% CI), Patients with 1 Rare Allele [28]: 0.58 (0.40 to 0.84) | n/total (%) cases, Pravastatin Patients, 1 Rare Allele [28]: 65/282 (23.1%) | Pravastatin vs. Placebo Odds Ratio (95% CI), Patients with 2 Rare Alleles [29]: 0.34 (0.14 to 0.82) | n/total (%) cases, Pravastatin Patients, 2 Rare Alleles [29]: 9/53 (17.0%) | RR or OR of adverse coronary event, pravastatin vs placebo (WOSCOPS, CD6 hCV2553030, homozygous for the minor allele): 0.23 | OR (odds ratio) of MI associated with Pravastatin (WOSCOPS, CD6 hCV2553030 genotype Het (TC)): 0.71 | OR (odds ratio) of MI associated with Pravastatin (WOSCOPS, CD6 hCV2553030 genotype Major hom (CC)): 0.66 | OR (odds ratio) of MI associated with Pravastatin (WOSCOPS, CD6 hCV2553030 genotype Minor hom (TT)): 0.23 | OR (odds ratio) of MI associated with Pravastatin (WOSCOPS, CD6 hCV2553030 recessive (TT)): 0.23 | OR (odds ratio) of MI associated with Pravastatin (WOSCOPS; CD6 hCV2553030 recessive TC + CC)ref): 0.68 | OR of MI associated with Pravastatin, first of two OR sets printed [30]: 0.66 | OR of MI associated with Pravastatin, second of two OR sets printed [30]: 0.65
